Assay results taken from ChEMBL document CHEMBL1201862, “PubChem BioAssay data set” (2004).
Active and inactive are the calls of the source.

Columns and labels:
[1] = molecular target: T1, DNA repair protein RAD52 homolog (Homo sapiens, UniProt P43351); type: functional, biochemical
T1 sequence (P43351 whole entry): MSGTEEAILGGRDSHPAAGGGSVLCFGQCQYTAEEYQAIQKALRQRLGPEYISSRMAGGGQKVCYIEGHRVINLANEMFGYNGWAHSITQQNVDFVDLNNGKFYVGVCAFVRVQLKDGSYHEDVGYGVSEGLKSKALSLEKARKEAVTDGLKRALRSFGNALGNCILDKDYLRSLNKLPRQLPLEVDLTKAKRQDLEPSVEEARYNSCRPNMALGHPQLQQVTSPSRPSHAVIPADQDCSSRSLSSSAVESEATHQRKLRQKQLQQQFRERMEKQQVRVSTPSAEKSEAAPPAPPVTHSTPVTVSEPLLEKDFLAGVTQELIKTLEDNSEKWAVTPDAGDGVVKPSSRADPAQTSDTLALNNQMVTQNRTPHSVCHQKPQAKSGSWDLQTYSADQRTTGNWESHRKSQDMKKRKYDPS

[2] = molecular target: Heat shock protein HSP 90-alpha (Homo sapiens, UniProt P07900); type: functional, organism-based
[3] = growth inhibition of yeast DHODH-expressing 3D7 parasites – SYBR Green, dry powder samples, dose response (AID 1159570); type: functional, cell-based;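 further: parasite growth measured after 72 hours of compound exposure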
[4] = P. falciparum Dd2 growth inhibitors, dose response, SYBR Green, cherry-picked samples (AID 1159567); type: functional, cell-based
[5] = toxicity to human HepG2 hepatoma cells – cell-based, plate reader, dry powder samples, cytotoxicity control, dose response (AID 1159569); type: functional;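 further: inhibitor potency with signal falling toward the positive control level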
[6] = growth inhibition of PfATP4-mutant resistant parasites – NITD609-resistant line, SYBR Green, dry powder, dose response (AID 1159571); type: functional, cell-based;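 further: parasites synchronized at ring stage by sorbitol before testing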
[7] = T. cruzi growth inhibition in host cells, dose response, cell-based, plate reader, dry powder, set 2 (AID 652275); type: functional
[8] = Dd2 malaria parasite growth inhibition potency – SYBR Green, dry powder samples, dose response (AID 1159566); type: functional, cell-based;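 further: potency for growth inhibition with lower SYBR green DNA signal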
[9] = molecular target: T2, Methionyl-tRNA synthetase, putative (Trypanosoma brucei brucei, UniProt Q38C91); type: functional, Trypanosoma brucei brucei strain 927/4 GUTat10.1
T2 sequence (Q38C91 whole entry): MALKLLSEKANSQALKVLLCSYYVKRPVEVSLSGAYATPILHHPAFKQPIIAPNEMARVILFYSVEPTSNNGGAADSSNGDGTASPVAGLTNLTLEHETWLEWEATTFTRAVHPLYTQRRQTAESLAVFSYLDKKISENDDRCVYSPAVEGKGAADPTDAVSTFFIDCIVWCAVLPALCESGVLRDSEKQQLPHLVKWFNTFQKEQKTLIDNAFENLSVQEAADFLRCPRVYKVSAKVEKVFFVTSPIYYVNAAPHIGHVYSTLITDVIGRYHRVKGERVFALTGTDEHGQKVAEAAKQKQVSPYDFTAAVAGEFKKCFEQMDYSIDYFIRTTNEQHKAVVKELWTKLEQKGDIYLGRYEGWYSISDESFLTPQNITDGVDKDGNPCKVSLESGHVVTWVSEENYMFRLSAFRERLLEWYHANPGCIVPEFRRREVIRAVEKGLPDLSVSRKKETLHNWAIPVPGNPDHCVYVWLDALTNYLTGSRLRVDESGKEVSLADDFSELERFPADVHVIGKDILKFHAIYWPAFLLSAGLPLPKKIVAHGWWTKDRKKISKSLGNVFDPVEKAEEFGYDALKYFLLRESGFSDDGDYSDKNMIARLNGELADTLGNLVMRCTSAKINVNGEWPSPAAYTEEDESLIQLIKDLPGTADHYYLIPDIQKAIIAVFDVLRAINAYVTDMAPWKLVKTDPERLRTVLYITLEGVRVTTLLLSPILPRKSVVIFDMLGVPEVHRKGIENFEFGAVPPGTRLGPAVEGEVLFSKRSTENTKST

[10] = Counterscreen for inhibitors of Trypanosoma brucei methionyl tRNA synthetase (MetRS): Luminescence-based cell-based high throughput dose response assay to identify compounds that are cytotoxic to Jurkat human T lymphocyte cells.; type: functional
[11] = molecular target: T2, Methionyl-tRNA synthetase, putative; type: functional, Trypanosoma brucei brucei strain 927/4 GUTat10.1; remark: listed apart in the source
Cytochrome P450 2C19 = Cytochrome P450 2C19 (Homo sapiens, UniProt P33261); assay: qHTS Assay for Inhibitors and Substrates of Cytochrome P450 2C19. [Related pubchem assays: 410 ]; type: ADME; conditions: read-out: Potency
[12] = reduced cellular PGC1a acetyl-lysine signal – cell-based, cherry-picked samples, dose response (AID 720514); type: functional;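 further: potency may reflect raised or lowered acetylation signal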
[13] = Dd2 parasite growth inhibition in erythrocytes – SYBR Green, dry powder samples, set 9, dose response (AID 1159568); type: functional, cell-based
[14] = OVCAR8 cell viability loss – plate reader, dry powder samples, PAX8 project, dose response (AID 743197); type: functional, cell-based; conditions: OVCAR-8
[15] = OVCAR-3 cell viability loss – plate reader, dry powder samples, PAX8 inhibitor project, dose response (AID 743044); type: functional, cell-based
Paired box protein Pax-8 = Paired box protein Pax-8 (Homo sapiens, UniProt Q06710); assay: PAX8 transcriptional activity inhibition in RMG-I – RMG-I cells, luciferase, cherry-pick, dose response (AID 687027); type: functional, cell-based;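 further: luciferase reporter driven by Pax8 target thyroperoxidase promoter measured by SteadyGlo luminescence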
[16] = general cell-killing toxicity readout – plate reader, dry powder samples, cytotoxicity control for PAX8 inhibitor project, dose response (AID 743021); type: functional, cell-based
Estrogen receptor beta [17] = molecular target: T3, Estrogen receptor beta (Homo sapiens, UniProt Q92731);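 further: recombinant ER-beta bound to coactivator SRC1 peptide in presence of estradiol agonist; inhibitors block coactivator peptide binding and lower the FRET signal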
Estrogen receptor beta [18] = molecular target: T3, Estrogen receptor beta; assay: blockers of SRC-3 recruitment to ERβ – biochemical, ELISA, streptavidin-HRP readout, orthogonal assay, confirmation (AID 1060)
[19] = molecular target: Peroxisome proliferator-activated receptor gamma/Nuclear receptor coactivator 2 (Homo sapiens, UniProt P37231); type: functional;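 further: agonist potency for raising coactivator recruitment to the receptor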
[20] = molecular target: Peroxisome proliferator-activated receptor gamma/Nuclear receptor coactivator 3 (Homo sapiens, UniProt P37231); type: functional;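 further: agonist potency for raising coactivator recruitment to the receptor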
[21] = molecular target: Peroxisome proliferator-activated receptor gamma/Nuclear receptor coactivator 1 (Homo sapiens, UniProt P37231); type: functional;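 further: agonist potency as compounds enhance coactivator SRC-1 recruitment to PPARgamma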
[22] = HIV-1 Vif–A3G interaction blockers – biochemical, TR-FRET, GST-Vif 1-94, biotin-A3G peptide, dose response retest, primary screen (AID 1117319); type: functional;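 further: TR-FRET signal of purified GST-Vif binding a biotinylated A3G peptide; inhibitors lower the FRET signal by blocking Vif and A3G binding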
Bcl-2-like protein 10 = molecular target: T4, Bcl-2-like protein 10 (Homo sapiens, UniProt Q9HD36); assay: Bcl-B/TR3 peptide binding disruption – biochemical, fluorescence polarization, FITC-TR3 peptide, selectivity assay for Bfl-1 inhibitor project, primary screen (AID 748);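 further: fluorescence polarization from a fluorescein-labelled TR3 peptide binding purified Bcl-B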
T4 sequence (Q9HD36 whole entry): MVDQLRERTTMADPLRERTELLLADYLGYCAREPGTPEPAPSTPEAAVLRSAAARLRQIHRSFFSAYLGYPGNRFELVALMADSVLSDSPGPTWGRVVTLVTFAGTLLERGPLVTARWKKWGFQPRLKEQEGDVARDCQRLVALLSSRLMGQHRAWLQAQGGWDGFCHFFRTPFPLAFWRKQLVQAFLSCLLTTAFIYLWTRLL

[23] = A549 cell cytotoxicity, dose response, cytotoxicity control, plate reader, cherry-pick, antagonist series (AID 743412); type: functional, cell-based
[24] = blockade of melanocortin 4 receptor signaling – cell-based, plate reader, cherry pick, counter-screen for LGR2 antagonist project, dose response (AID 743444); type: functional;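 further: transfected HEK 293 cells stimulated with alpha-MSH peptide; potency of inhibitors of the alpha-MSH evoked signal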
[25] = toxicity toward HepG2 liver cells – cell-based, plate reader, cherry-pick, antagonist series, cytotoxicity control, dose response (AID 743416); type: functional
Estrogen receptor = molecular target: T5, Estrogen receptor (Homo sapiens, UniProt P03372);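 further: potency for inhibiting coactivator peptide recruitment to the receptor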
T5 sequence (P03372 whole entry): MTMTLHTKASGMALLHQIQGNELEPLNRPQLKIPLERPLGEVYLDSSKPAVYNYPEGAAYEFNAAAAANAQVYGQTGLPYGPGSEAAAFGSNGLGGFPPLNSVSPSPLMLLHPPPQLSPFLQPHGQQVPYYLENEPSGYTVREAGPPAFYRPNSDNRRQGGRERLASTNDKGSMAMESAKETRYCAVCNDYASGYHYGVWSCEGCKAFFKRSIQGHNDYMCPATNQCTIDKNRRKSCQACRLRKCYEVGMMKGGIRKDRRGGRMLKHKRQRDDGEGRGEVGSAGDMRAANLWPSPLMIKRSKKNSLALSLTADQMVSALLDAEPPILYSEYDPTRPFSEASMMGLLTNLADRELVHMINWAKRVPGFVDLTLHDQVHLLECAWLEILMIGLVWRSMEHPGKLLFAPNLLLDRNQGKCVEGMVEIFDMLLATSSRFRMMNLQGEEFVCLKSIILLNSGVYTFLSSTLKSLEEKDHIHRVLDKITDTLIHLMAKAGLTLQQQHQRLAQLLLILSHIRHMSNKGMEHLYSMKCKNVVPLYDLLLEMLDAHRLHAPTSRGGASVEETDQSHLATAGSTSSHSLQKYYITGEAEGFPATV

[26] = IC50 of insulin release inhibition, rat insulinoma INS-1E line, 5 mM glucose, cell-based (AID 1117331); type: functional

T3 sequence (Q92731 whole entry): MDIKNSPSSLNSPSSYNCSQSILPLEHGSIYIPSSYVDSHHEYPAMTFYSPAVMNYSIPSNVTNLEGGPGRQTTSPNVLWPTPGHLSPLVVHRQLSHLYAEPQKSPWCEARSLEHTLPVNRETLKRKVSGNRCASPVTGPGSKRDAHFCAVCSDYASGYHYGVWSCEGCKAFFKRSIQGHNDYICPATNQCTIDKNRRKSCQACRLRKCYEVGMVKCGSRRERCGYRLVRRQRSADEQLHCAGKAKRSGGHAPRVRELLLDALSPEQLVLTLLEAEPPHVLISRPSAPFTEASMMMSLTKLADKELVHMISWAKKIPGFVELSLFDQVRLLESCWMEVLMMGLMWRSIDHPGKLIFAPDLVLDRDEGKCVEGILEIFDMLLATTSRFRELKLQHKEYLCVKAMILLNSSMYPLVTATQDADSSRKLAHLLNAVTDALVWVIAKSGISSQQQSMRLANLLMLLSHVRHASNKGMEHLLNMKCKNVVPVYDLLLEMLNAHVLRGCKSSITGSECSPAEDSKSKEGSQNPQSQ
Sequence of Paired box protein Pax-8 (Q06710 whole entry): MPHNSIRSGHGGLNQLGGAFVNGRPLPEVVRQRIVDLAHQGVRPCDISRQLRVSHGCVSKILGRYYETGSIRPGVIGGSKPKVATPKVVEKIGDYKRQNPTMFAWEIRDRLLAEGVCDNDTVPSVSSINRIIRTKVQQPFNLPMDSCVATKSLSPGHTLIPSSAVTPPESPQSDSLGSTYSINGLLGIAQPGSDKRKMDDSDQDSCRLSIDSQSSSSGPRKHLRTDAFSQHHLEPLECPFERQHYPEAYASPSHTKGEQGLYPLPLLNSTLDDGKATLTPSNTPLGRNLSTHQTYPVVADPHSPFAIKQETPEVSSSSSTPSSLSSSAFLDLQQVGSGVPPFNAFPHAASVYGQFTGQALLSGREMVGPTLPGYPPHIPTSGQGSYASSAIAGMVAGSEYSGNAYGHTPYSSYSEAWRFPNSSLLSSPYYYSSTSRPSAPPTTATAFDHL
Sequence of Cytochrome P450 2C19 (P33261 whole entry): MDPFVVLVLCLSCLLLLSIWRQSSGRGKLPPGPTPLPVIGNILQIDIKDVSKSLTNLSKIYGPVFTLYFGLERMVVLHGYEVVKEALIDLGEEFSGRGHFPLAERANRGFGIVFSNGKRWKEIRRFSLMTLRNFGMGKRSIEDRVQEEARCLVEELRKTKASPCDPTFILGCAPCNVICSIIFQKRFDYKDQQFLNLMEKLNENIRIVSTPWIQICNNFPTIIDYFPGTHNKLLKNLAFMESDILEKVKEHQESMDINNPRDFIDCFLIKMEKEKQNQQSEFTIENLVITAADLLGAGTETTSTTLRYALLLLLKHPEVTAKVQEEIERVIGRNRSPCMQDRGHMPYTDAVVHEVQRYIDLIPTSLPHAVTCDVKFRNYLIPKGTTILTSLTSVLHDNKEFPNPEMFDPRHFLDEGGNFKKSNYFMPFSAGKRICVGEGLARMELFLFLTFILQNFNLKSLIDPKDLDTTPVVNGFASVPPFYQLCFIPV
Sequence of Peroxisome proliferator-activated receptor gamma/Nuclear receptor coactivator 1 (P37231 whole entry): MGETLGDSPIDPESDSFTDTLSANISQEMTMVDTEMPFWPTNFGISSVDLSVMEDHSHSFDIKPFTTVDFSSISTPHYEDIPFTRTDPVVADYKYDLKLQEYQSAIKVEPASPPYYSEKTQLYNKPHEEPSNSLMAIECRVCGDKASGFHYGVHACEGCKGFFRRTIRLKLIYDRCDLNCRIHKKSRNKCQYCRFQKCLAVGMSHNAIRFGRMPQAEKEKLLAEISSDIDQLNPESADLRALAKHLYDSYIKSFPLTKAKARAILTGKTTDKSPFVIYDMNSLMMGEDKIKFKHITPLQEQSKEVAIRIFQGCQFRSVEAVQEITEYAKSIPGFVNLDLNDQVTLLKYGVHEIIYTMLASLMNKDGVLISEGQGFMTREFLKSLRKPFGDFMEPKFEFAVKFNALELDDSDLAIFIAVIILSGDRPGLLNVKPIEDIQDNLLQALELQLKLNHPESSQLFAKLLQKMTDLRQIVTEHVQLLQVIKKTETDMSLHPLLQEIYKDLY
Sequence of Peroxisome proliferator-activated receptor gamma/Nuclear receptor coactivator 1 (Q15788 whole entry, further chain): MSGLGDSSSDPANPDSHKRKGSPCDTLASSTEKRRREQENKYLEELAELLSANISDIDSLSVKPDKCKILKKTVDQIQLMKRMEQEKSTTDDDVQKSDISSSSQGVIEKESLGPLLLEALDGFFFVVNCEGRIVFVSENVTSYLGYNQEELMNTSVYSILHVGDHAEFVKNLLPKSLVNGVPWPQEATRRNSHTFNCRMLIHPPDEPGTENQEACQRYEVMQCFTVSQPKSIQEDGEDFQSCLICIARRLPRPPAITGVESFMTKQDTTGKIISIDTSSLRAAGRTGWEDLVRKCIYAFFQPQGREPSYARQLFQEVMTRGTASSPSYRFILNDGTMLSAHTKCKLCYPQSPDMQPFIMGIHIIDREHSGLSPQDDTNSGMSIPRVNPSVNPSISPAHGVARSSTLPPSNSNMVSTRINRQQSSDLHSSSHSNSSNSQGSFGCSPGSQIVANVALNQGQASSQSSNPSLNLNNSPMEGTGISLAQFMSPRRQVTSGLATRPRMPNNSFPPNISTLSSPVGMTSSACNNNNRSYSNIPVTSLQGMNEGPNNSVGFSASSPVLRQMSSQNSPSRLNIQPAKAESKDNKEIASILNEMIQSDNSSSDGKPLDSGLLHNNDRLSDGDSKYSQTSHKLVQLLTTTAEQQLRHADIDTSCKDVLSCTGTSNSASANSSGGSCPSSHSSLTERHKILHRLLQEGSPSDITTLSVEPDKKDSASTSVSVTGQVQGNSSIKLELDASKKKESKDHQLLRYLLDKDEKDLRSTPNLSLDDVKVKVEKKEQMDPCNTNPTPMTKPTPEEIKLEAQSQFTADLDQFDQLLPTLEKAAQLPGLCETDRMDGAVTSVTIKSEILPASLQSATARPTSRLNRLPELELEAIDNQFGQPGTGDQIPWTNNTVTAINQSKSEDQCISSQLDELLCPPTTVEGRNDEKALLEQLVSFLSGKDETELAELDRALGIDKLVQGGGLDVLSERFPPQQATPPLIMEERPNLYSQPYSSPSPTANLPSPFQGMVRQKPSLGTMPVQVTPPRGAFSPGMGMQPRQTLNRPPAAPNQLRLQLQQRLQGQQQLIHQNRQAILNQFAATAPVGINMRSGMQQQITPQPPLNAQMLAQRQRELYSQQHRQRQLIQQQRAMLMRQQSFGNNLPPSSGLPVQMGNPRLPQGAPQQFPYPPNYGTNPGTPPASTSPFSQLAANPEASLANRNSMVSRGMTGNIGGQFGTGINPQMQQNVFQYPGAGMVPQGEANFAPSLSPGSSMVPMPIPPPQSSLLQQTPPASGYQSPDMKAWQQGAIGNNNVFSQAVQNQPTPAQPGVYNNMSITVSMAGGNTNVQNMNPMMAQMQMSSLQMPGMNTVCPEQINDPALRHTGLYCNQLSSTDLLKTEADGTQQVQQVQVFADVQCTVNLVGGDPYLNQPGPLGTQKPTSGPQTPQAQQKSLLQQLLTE

CCCCCCCCCCCCCCCC[n+]1ccccc1
AC50 [1]: 5.71 µM (active)
AC50 [2]: 2.73 µM (active)

COc1ccc(C#Cc2cccc(-c3nc(C(=O)NCc4ccc5c(c4)OCO5)cc4c3[C@@H](CCO)N([S+]([O-])C(C)(C)C)C4)c2)cc1OC (stereo not given in full)
AC50 [3]: 2.05 µM (active)
AC50 [4]: 0.747 µM (active)
AC50 [5]: > 100 µM (inactive)
AC50 [6]: 1.52 µM (active)
AC50 [7]: 0.58 µM (active)
AC50 [8]: 0.838 µM (active)

COc1cc2nc(Nc3cccc(F)c3)nc(N)c2cc1OC
AC50 [1]: 8.77 µM (active)
IC50 [9]: 18.2 µM (inactive)
IC50 [10]: 35.5 µM (inactive)
IC50 [11]: 26.2 µM (inactive)

CC(=O)c1ccc(OC2C=CC(C#Cc3ccc(Br)cc3)OC2CO)cc1 (stereo not given)
AC50 (Cytochrome P450 2C19): 3.98 µM (inconclusive)

O=C(C[C@H]1C[C@@H]2c3cc(NS(=O)(=O)c4ccc(F)cc4)ccc3O[C@@H]2[C@@H](CO)O1)N1CCc2ccccc2C1
AC50 [12]: 17.5 µM (active)
AC50 [13]: 6.85 µM (active)
AC50 [4]: 9.73 µM (active)
AC50 [14]: 23.9 µM (active)
AC50 [15]: 26.1 µM (active)
AC50 (Paired box protein Pax-8): 3.86 µM (active)
AC50 [16]: 57.8 µM (active)

CN(C)C(=O)c1ccc(-c2ccc([C@H]3[C@H](CO)N4CCCCN(C(=O)C5CCCC5)C[C@@H]34)cc2)cc1
AC50 [7]: 0.0488 µM (active)

CN(C)CC(=O)N1CCCCN2[C@@H](CO)[C@H](c3ccc(/C=C/c4ccccc4)cc3)[C@@H]2C1
AC50 [12]: 23.8 µM (active)

COc1ccc(S(=O)(=O)Nc2ccc3c(c2)C(=O)N([C@@H](C)CO)C[C@H](C)[C@@H](CN(C)C(=O)Nc2ccc(F)cc2)OCCCC[C@H](C)O3)cc1
AC50 (Paired box protein Pax-8): 9.96 µM (active)
AC50 [16]: 59.1 µM (active)

COc1ccc(NC(=O)N(C)C[C@H]2Oc3c(NC(=O)CCCCCC(=O)Nc4ccccc4N)cccc3C(=O)N([C@@H](C)CO)C[C@H]2C)cc1
AC50 [13]: 0.983 µM (active)

CC(=N)/C(C#N)=C(/O)CSc1nnc(Nc2ccccc2C)s1
IC50 (Estrogen receptor beta [17]): 12.2 µM (active)
IC50 (Estrogen receptor beta [18]): 5.18 µM (not active)

CC(C)NC(=O)NC(=O)CSc1ccccc1F
EC50 [19]: > 79.4 µM (not active)
EC50 [20]: > 79.4 µM (not active)
EC50 [21]: > 79.4 µM (not active)

CCC(C)NS(=O)(=O)c1ccc(NS(=O)(=O)c2ccc(F)cc2)cc1 (stereo not given)
IC50 [22]: > 100 µM (active)

O=C(NC1CCCC1)C(c1ccncc1)N(Cc1ccccc1F)C(=O)c1csnn1 (stereo not given)
AC50 [12]: 34.7 µM (active)

CCCCC#CC1C=CC(OC(C)=O)C(COC(C)=O)O1 (stereo not given)
AC50 (Cytochrome P450 2C19): 7.94 µM (inconclusive)

C[C@@H]1CCCCO[C@@H](CN(C)C(=O)Nc2cccc3ccccc23)[C@H](C)CN([C@H](C)CO)C(=O)c2cc(NC(=O)CCC(F)(F)F)ccc2O1
AC50 [13]: 1.08 µM (active)

CCc1ccccc1NC(=O)c1cc2ncc(Br)cn2n1
IC50 (Estrogen receptor beta [17]): 31 µM (not active)
IC50 (Bcl-2-like protein 10): 62.5 µM (inactive)
IC50 [22]: > 100 µM (active)
IC50 (Estrogen receptor beta [18]): 14.7 µM (not active)

C[C@H]1CN([C@@H](C)CO)C(=O)c2cc(C#CCc3ccccc3)cnc2O[C@H]1CN(C)Cc1ccccc1
AC50 [23]: 23.3 µM (active)
AC50 [24]: 38.2 µM (active)
AC50 [25]: > 52 µM (inactive)

O=C(C1=C[C@@H](c2ccc(C(F)(F)F)cc2)C[C@@H](OCCCCO)O1)N1CCN(Cc2ccc3c(c2)OCO3)CC1
EC50 [19]: > 79.4 µM (not active)
EC50 [20]: > 79.4 µM (not active)
EC50 [21]: > 79.4 µM (not active)

CN(C)C(=O)c1cccc(-c2ccc([C@H]3[C@H](CO)N4CCCCN(CC5CCOCC5)C[C@@H]34)cc2)c1
AC50 [7]: 4.63 µM (active)

Cc1ccc(C(=O)NCC(=O)OCC(=O)c2c(N)n(C)c(=O)n(C)c2=O)s1
IC50 (Estrogen receptor beta [17]): 6.84 µM (active)
IC50 (Estrogen receptor beta [18]): 6.1 µM (not active)
IC50 (Estrogen receptor): > 50 µM (not active)

CCOC(=O)/C(C#N)=C/c1c(OCC)n(CC)c2ccccc12
IC50 [22]: > 100 µM (active)

COc1ccc2c(c1OC)C(=O)O[C@H]2[C@@H]1c2cc3c(cc2CCN1C)OCO3
IC50 [26]: > 33.3 µM (inactive)
